From patent US20040143025A1, “Carbon monoxide generating compunds for treatment of vascular, inflammatory and immune disorders” (priority 2002, published 2004) come the findings set out here.

For data set [1] the following is noted: mice exposed to gaseous CO at 500 ppm. The method, then:
To examine the effect of gaseous CO on the immune system, C57/BL6 mice (B6, Jackson Laboratory, Bar Harbor, Me.) were first exposed to 500 ppm CO in air (Praxair, Danbury, Conn.) for one hour in a sealed chamber before injection of lipopolysaccharide (LPS) (0.3 mg/kg, i.v., Sigma, St Louis, Mo.). After injection, they were exposed to another hour in the CO chamber. Blood samples were collected one hour after LPS injection (through the aortic artery) and the COHb level in whole blood was measured by a whole blood AVOXimeter 4000 (A-VOX Systems, San Antonio, Tex.). Serum samples were separated and were kept at −80° C. until analysis. Serum TNF-α was measured by sandwich ELISA (Biosource, Camarillo, Calif.).
To reveal the therapeutic potential of CO generators, methylene chloride (MC, Sigma, St. Louis, Mo.) was selected as a lead compound. Different concentrations of MC were prepared by using olive oil as a solvent. Mice were treated with MC at 5 mg/kg., 50 mg/kg, and 500 mg/kg, p.o., one hour before LPS administration.

Data set [2] relates to aortic allografts. Briefly: Immunohistology of aortic grafts: infiltrating leukocytes and VSMCs. Format: in vivo, rat. Set-up: key: −: not present; +: low; ++: moderate; +++: frequent. The conditions noted are these: day 30. The method, then: Immunohistological analysis. Immunohistology was performed on cryostat sections as previously described in detail. Guillot et al., J. Immunol. 164:5258-68 (2000). Immunohistological analysis of infiltrating leukocytes was performed at day 30 after transplantation using the following mouse Mab: a mixture of two anti-leukocyte CD45 Mabs (OX1 AND OX30), anti-monocyte/macrophage CD68 (ED1), anti-αβ TCR (R.7.3), anti-CD4 (W3/25), anti-CD8 α chain (OX8), anti-monomorphic class II MHC antigens (OX6), anti-CD25 (OX39) (all from ECACC, Wiltshire, UK), anti-CD54 (ICAM-1) (Seikagaku America Inc., Rockville, Mass.), anti-CD86 (B7.2) (Pharmingen, Franklin Lakes, N.J.) and an irrelevant mouse Mab (3G8, anti-human CD16). VSMCs were detected using a mouse anti-α human smooth muscle actin Mab (Sigma, St. Louis, Mo.). Slides were then incubated with a biotin-conjugated anti-mouse immunoglobulin antibody (Vector Laboratories, Burlingame, Calif.), followed by HRP-conjugated streptavidin (Vector Laboratories) and VIP substrate. IFNγ expression was analyzed using a hamster Mab (Genzyme, Cambridge, Mass.). The IP10 chemiokine was detected using a goat anti-IP10 antibody (Santa Cruz, Santa Cruz, Calif.). Rabbit antibodies were used to detect iNOS (Transduction Laboratories, Lexington, Ky.), HO-1 (Stressgen) and TGFβ1 (Promega, Madison, Wis.). Biotin-conjugated anti-hamster, anti-goat and anti-rabbit antibodies were from Jackson Immunoresearch. Binding of these antibodies was detected by incubation with HRP-conjugated streptavidin and VIP substrate. Tissue sections were counterstained with hematoxylin and lithium carbonate.

Regarding `[C-]#[O+]` [CO, carbon monoxide], in data set [1], the O2Hb levels amounted to 79.18±1.569%. Moreover, in data set [2] (adventitia), the CD4 entry was “++”, the CD8 result was “+”, the “CD45 (leukocytes)” value is “+++” and the “CD68 (macrophages)” value is “+++”. Moreover, in data set [2] (adventitia), the “TCRαβ (T cells)” value is “+” and the VSMCs result is recorded as “−”. Besides, in data set [2] (intima), the CD4 result is “+”, the CD8 result is “+”, the “CD45 (leukocytes)” value is given as “++” and the “CD68 (macrophages)” value is “++”. Further, in data set [2] (intima), the “TCRαβ (T cells)” value was “−” and the VSMCs entry is given as “−”. Further, in data set [2] (media), the CD4 result is reported as “−”, the CD8 result was “−”, the “CD45 (leukocytes)” value is “−” and the “CD68 (macrophages)” value is “−”. In data set [2] (media), the “TCRαβ (T cells)” value is listed as “−” and the VSMCs entry was “+++”.
